Reference: the NIST ThermoML archive (doi:10.1016/j.tca.2004.11.001)

Assay: molar heat capacity at constant pressure; xn = mol fraction of the nth substance listed
Settings: 101.33 kPa, Liquid

CCCCCCOCCOCCOCCOCCOCCO [2-(hexyloxytetraethoxy)ethanol] + O
molar heat capacity at constant pressure [J/K/mol]
Settings | 283 K | 288 K | 298 K | 308 K | 318 K | 328 K | 338 K
x1 = 0.00036 | 75.88 | 75.76 | 75.66 | 75.64 | 75.68 | 75.77 | 75.85
x1 = 0.00072 | 76.25 | 76.13 | 76.04 | 76.03 | 76.07 | 76.14 | 76.23
x1 = 0.00106 | 76.6 | 76.5 | 76.43 | 76.42 | 76.46 | 76.53 | 76.6
x1 = 0.00146 | 77.04 | 76.94 | 76.92 | 76.95 | 76.95 | 76.93 | 76.96
x1 = 0.00175 | 77.35 | 77.33 | 77.41 | 77.35 | 77.25 | 77.18 | 77.19
x1 = 0.0018 | 77.46 | 77.42 | 77.48 | 77.44 | 77.35 | 77.28 | 77.3
x1 = 0.00235 | 78.13 | 78.25 | 78.2 | 78.06 | 77.88 | 77.81 | 77.83
x1 = 0.00281 | 78.98 | 78.99 | 78.74 | 78.45 | 78.27 | 78.21 | 78.27
x1 = 0.00324 | 79.99 | 79.7 | 79.24 | 78.86 | 78.68 | 78.63 | 78.61
x1 = 0.00357 | 80.51 | 80.06 | 79.53 | 79.18 | 78.99 | 78.93 | 78.99
x1 = 0.00398 | 81 | 80.46 | 79.78 | 79.43 | 79.29 | 79.25 | 79.27
x1 = 0.00473 | 81.76 | 81.26 | 80.57 | 80.19 | 80.01 | 79.95 | 79.97
x1 = 0.00503 | 82.06 | 81.55 | 80.85 | 80.47 | 80.3 | 80.24 | 80.25
x1 = 0.00543 | 82.41 | 81.91 | 81.22 | 80.85 | 80.67 | 80.61 | 80.57
x1 = 0.00585 | 82.79 | 82.27 | 81.58 | 81.22 | 81.05 | 80.99 | 81.01
x1 = 0.0063 | 83.1 | 82.58 | 81.9 | 81.54 | 81.37 | 81.31 | 81.32
x1 = 0.0069 | 83.54 | 83.03 | 82.38 | 82.04 | 81.89 | 81.82 | 81.83
x1 = 0.00752 | 84.02 | 83.53 | 82.92 | 82.62 | 82.49 | 82.43 | 82.46
x1 = 0.00819 | 84.48 | 84.03 | 83.46 | 83.18 | 83.06 | 83.02 | 83.06
x1 = 0.00886 | 85 | 84.56 | 84.02 | 83.75 | 83.64 | 83.61 | 83.65
x1 = 0.00969 | 85.51 | 85.11 | 84.64 | 84.42 | 84.35 | 84.37 | 84.46
x1 = 0.0118 | 87.08 | 86.76 | 86.37 | 86.21 | 86.16 | 86.19 | 86.22
x1 = 0.01312 | 88 | 87.75 | 87.46 | 87.33 | 87.3 | 87.32 | 87.37
x1 = 0.01647 | 90.68 | 90.57 | 90.49 | 90.48 | 90.51 | 90.58 | 90.44
x1 = 0.01786 | 91.44 | 91.39 | 91.36 | 91.4 | 91.49 | 91.6 | 91.72
x1 = 0.01996 | 92.94 | 92.97 | 93.07 | 93.17 | 93.26 | 93.31 | 93.32
x1 = 0.02247 | 94.73 | 94.84 | 95.04 | 95.24 | 95.42 | 95.55 | 95.59
x1 = 0.02729 | 98.3 | 98.56 | 99 | 99.32 | 99.54 | 99.68 | 99.81
x1 = 0.0303 | 100.51 | 100.88 | 101.48 | 101.9 | 102.19 | 102.38 | 102.52
x1 = 0.03518 | 103.98 | 104.48 | 105.27 | 105.84 | 106.24 | 106.51 | 106.68
x1 = 0.0397 | 107.24 | 107.83 | 108.77 | 109.44 | 109.93 | 110.24 | 110.48
x1 = 0.04518 | 111.01 | 111.69 | 112.79 | 113.6 | 114.17 | 114.53 | 114.82
x1 = 0.05201 | 115.67 | 116.48 | 117.75 | 118.68 | 119.37 | 119.87 | 120.21
x1 = 0.06018 | 121.38 | 122.34 | 123.83 | 124.98 | 125.84 | 126.57 | 126.88
x1 = 0.07563 | 131.77 | 132.81 | 134.56 | 135.97 | 137.1 | 137.96 | 138.56
x1 = 0.09777 | 146.15 | 147.28 | 149.31 | 151.06 | 152.51 | 153.69 | 154.59
x1 = 0.1356 | 170.77 | 171.98 | 174.29 | 176.42 | 178.34 | 180.03 | 181.46
x1 = 0.1978 | 210.08 | 211.39 | 213.91 | 216.46 | 218.95 | 221.31 | 223.41
x1 = 0.3066 | 278.42 | 279.68 | 282.35 | 285.3 | 288.41 | 291.49 | 294.37
x1 = 0.6924 | 513.75 | 515.35 | 519.97 | 524.59 | 529.47 | 534.66 | 538.64
x1 = 1 | 686.95 | 689.21 | 693.95 | 698.98 | 704.91 | 711.23 | 716.97

O [water] + CCCCCCOCCOCCOCCOCCOCCO
x2 = 0
Settings | molar heat capacity at constant pressure [J/K/mol]
283 K | 75.53
288 K | 75.41
298 K | 75.3
308 K | 75.28
318 K | 75.3
328 K | 75.35
338 K | 75.43
